Source: ChEMBL document CHEMBL4396913, “Synthesis and biological evaluation of hybrid quinolone-based quaternary ammonium antibacterial agents” (Eur J Med Chem, 2019)
Converted amounts (≈) assume the structure as drawn.

Tests used:
[1] = Lipophilicity, log k of the compound at 100 ug/ml by micellar electrokinetic chromatography; format: physicochemical
Staphylococcus aureus [2] = test: Antibacterial activity against Staphylococcus aureus ATCC 6538 cultured in MH medium assessed as reduction in bacterial growth incubated for 48 hrs by microbroth dilution method; format: functional; conditions: ATCC 6538, 48 h
Staphylococcus aureus [3] = test: Bactericidal activity against Staphylococcus aureus ATCC 6538 cultured in MH medium assessed as reduction in bacterial survival incubated for 48 hrs by microbroth dilution method; format: functional; conditions: ATCC 6538, 48 h
Staphylococcus aureus [4] = test: Antibacterial activity against methicillin resistant Staphylococcus aureus N315 cultured in MH medium assessed as reduction in bacterial growth incubated for 48 hrs by microbroth dilution method; format: functional; conditions: N315, 48 h
Staphylococcus aureus [5] = test: Bactericidal activity against methicillin resistant Staphylococcus aureus N315 cultured in MH medium assessed as reduction in bacterial survival incubated for 48 hrs by microbroth dilution method; format: functional; conditions: N315, 48 h
[6] = test system: Staphylococcus epidermidis; test: Antibacterial activity against Staphylococcus epidermidis ATCC 14990 cultured in MH medium assessed as reduction in bacterial growth incubated for 48 hrs by microbroth dilution method; format: functional; conditions: ATCC 14990, 48 h
[7] = test system: Staphylococcus epidermidis; test: Bactericidal activity against Staphylococcus epidermidis ATCC 14990 cultured in MH medium assessed as reduction in bacterial survival incubated for 48 hrs by microbroth dilution method; format: functional; conditions: ATCC 14990, 48 h
Enterococcus hirae [8] = test: Antibacterial activity against Enterococcus hirae ATCC 1052 cultured in BHI medium assessed as reduction in bacterial growth incubated for 48 hrs by microbroth dilution method; format: functional; conditions: ATCC 1052, 48 h
Bacillus spizizenii [9] = test: Antibacterial activity against Bacillus subtilis ATCC 6633 cultured in MH medium assessed as reduction in bacterial growth incubated for 48 hrs by microbroth dilution method; format: functional; conditions: ATCC 6633, 48 h
Bacillus spizizenii [10] = test: Bactericidal activity against Bacillus subtilis ATCC 6633 cultured in MH medium assessed as reduction in bacterial survival incubated for 48 hrs by microbroth dilution method; format: functional; conditions: ATCC 6633, 48 h
Escherichia coli [11] = test: Antibacterial activity against Escherichia coli ATCC 8739 cultured in MH medium assessed as reduction in bacterial growth incubated for 48 hrs by microbroth dilution method; format: functional; conditions: ATCC 8739, 48 h
Escherichia coli [12] = test: Bactericidal activity against Escherichia coli ATCC 8739 cultured in MH medium assessed as reduction in bacterial survival incubated for 48 hrs by microbroth dilution method; format: functional; conditions: ATCC 8739, 48 h
Pseudomonas aeruginosa [13] = test: Antibacterial activity against Pseudomonas aeruginosa ATCC 9027 cultured in MH medium assessed as reduction in bacterial growth incubated for 48 hrs by microbroth dilution method; format: functional; conditions: ATCC 9027, 48 h
Pseudomonas aeruginosa [14] = test: Bactericidal activity against Pseudomonas aeruginosa ATCC 9027 cultured in MH medium assessed as reduction in bacterial survival incubated for 48 hrs by microbroth dilution method; format: functional; conditions: ATCC 9027, 48 h
Proteus vulgaris [15] = test: Antibacterial activity against Proteus vulgaris NCTC 4635 cultured in MH medium assessed as reduction in bacterial growth incubated for 48 hrs by microbroth dilution method; format: functional; conditions: NCTC 4635, 48 h
Proteus vulgaris [16] = test: Bactericidal activity against Proteus vulgaris NCTC 4635 cultured in MH medium assessed as reduction in bacterial survival incubated for 48 hrs by microbroth dilution method; format: functional; conditions: NCTC 4635, 48 h
Staphylococcus aureus [17] = test: Antibacterial activity against methicillin resistant Staphylococcus aureus 6347 cultured in MH medium assessed as reduction in bacterial growth incubated for 48 hrs by microbroth dilution method; format: functional; conditions: Staphylococcus aureus, 6347, 48 h
Staphylococcus aureus [18] = test: Bactericidal activity against methicillin resistant Staphylococcus aureus 6347 cultured in MH medium assessed as reduction in bacterial survival incubated for 48 hrs by microbroth dilution method; format: functional; conditions: Staphylococcus aureus, 6347, 48 h
[19] = test system: Staphylococcus epidermidis; test: Antibacterial activity against methicillin resistant Staphylococcus epidermidis ATCC 13199 cultured in MH medium assessed as reduction in bacterial growth incubated for 48 hrs by microbroth dilution method; format: functional; conditions: ATCC 13199, 48 h
[20] = test system: Staphylococcus epidermidis; test: Bactericidal activity against methicillin resistant Staphylococcus epidermidis ATCC 13199 cultured in MH medium assessed as reduction in bacterial survival incubated for 48 hrs by microbroth dilution method; format: functional; conditions: ATCC 13199, 48 h
Streptococcus pneumoniae [21] = test: Antibacterial activity against Streptococcus pneumoniae cultured in MH medium assessed as reduction in bacterial growth incubated for 48 hrs by microbroth dilution method; format: functional
Serratia marcescens [22] = test: Antibacterial activity against Serratia marcescens ATCC 12795 cultured in MH medium assessed as reduction in bacterial growth incubated for 48 hrs by microbroth dilution method; format: functional; conditions: ATCC 12795, 48 h
Serratia marcescens [23] = test: Bactericidal activity against Serratia marcescens ATCC 12795 cultured in MH medium assessed as reduction in bacterial survival incubated for 48 hrs by microbroth dilution method; format: functional; conditions: ATCC 12795, 48 h
Escherichia coli [24] = test: Antibacterial activity against […] Escherichia coli ATCC 8739 assessed as reduction in bacterial growth incubated for 48 hrs in presence of 50 ug/ml […], PAbetaN by microbroth dilution method; format: functional; conditions: ATCC 8739, 48 h
Escherichia coli [25] = test: Bactericidal activity against […] Escherichia coli ATCC 8739 assessed as reduction in bacterial survival incubated for 48 hrs in presence of 50 ug/ml […], PAbetaN by microbroth dilution method; format: functional; conditions: ATCC 8739, 48 h
HEK293 [26] = test: Cytotoxicity against human HEK293 cells assessed as cell viability upto 20 uM incubated for 72 hrs by MTT assay; format: cell-based; conditions: hek293, 72 h
HEK293 [27] = test: Cytotoxicity against human HEK293 cells assessed as changes in cell morphology upto 20 uM incubated for 72 hrs by MTT assay; format: cell-based; conditions: hek293, 72 h
Enterococcus hirae [28] = test: Bactericidal activity against Enterococcus hirae ATCC 1052 cultured in BHI medium assessed as reduction in bacterial survival incubated for 48 hrs by microbroth dilution method; format: functional; conditions: ATCC 1052, 48 h
Streptococcus pneumoniae [29] = test: Bactericidal activity against Streptococcus pneumoniae cultured in MH medium assessed as reduction in bacterial survival incubated for 48 hrs by microbroth dilution method; format: functional
Pseudomonas aeruginosa [30] = test: Antibiofilm activity against Pseudomonas aeruginosa ATCC 9027 assessed as biofilm formation at antibacterial MIC incubated for 24 hrs compound added prior to bacterial biofilm formation by total biomass crystal violet staining-based method relative to control; format: functional
Staphylococcus aureus [31] = test: Antibiofilm activity against Staphylococcus aureus ATCC 6538 assessed as biofilm formation at antibacterial MIC incubated for 24 hrs compound added prior to bacterial biofilm formation by total biomass crystal violet staining-based method relative to control; format: functional
Pseudomonas aeruginosa [32] = test: Antibiofilm activity against Pseudomonas aeruginosa ATCC 9027 assessed as biofilm formation at 0.5 times antibacterial MIC incubated for 24 hrs compound added prior to bacterial biofilm formation by total biomass crystal violet staining-based method relative to control; format: functional
Staphylococcus aureus [33] = test: Antibiofilm activity against Staphylococcus aureus ATCC 6538 assessed as biofilm formation at 0.5 times antibacterial MIC incubated for 24 hrs compound added prior to bacterial biofilm formation by total biomass crystal violet staining-based method relative to control; format: functional
Pseudomonas aeruginosa [34] = test: Biofilm degradation activity against Pseudomonas aeruginosa ATCC 9027 assessed as biofilm formation at antibacterial MIC incubated for 24 hrs compound added post-biofilm formation by total biomass crystal violet staining-based method; format: functional
Pseudomonas aeruginosa [35] = test: Biofilm degradation activity against Pseudomonas aeruginosa ATCC 9027 assessed as biofilm formation at 2 times antibacterial MIC incubated for 24 hrs compound added post-biofilm formation by total biomass crystal violet staining-based method; format: functional
Pseudomonas aeruginosa [36] = test: Biofilm degradation activity against Pseudomonas aeruginosa ATCC 9027 assessed as biofilm formation at 4 times antibacterial MIC incubated for 24 hrs compound added post-biofilm formation by total biomass crystal violet staining-based method; format: functional
Staphylococcus aureus [37] = test: Biofilm degradation activity against Staphylococcus aureus ATCC 6538 assessed as biofilm formation at antibacterial MIC incubated for 24 hrs compound added post-biofilm formation by total biomass crystal violet staining-based method; format: functional
Staphylococcus aureus [38] = test: Biofilm degradation activity against Staphylococcus aureus ATCC 6538 assessed as biofilm formation at 2 times antibacterial MIC incubated for 24 hrs compound added post-biofilm formation by total biomass crystal violet staining-based method; format: functional
Staphylococcus aureus [39] = test: Biofilm degradation activity against Staphylococcus aureus ATCC 6538 assessed as biofilm formation at 4 times antibacterial MIC incubated for 24 hrs compound added post-biofilm formation by total biomass crystal violet staining-based method; format: functional

| SMILES | log K [1] | MIC (Staphylococcus aureus [2]) [µg/mL] | MBC (Staphylococcus aureus [3]) [µg/mL] | MIC (Staphylococcus aureus [4]) [µg/mL] | MBC (Staphylococcus aureus [5]) [µg/mL] | MIC [6] [µg/mL] | MBC [7] [µg/mL] | MIC (Enterococcus hirae [8]) [µg/mL] | MIC (Bacillus spizizenii [9]) [µg/mL] | MBC (Bacillus spizizenii [10]) [µg/mL] | MIC (Escherichia coli [11]) [µg/mL] | MBC (Escherichia coli [12]) [µg/mL] | MIC (Pseudomonas aeruginosa [13]) [µg/mL] | MBC (Pseudomonas aeruginosa [14]) [µg/mL] | MIC (Proteus vulgaris [15]) [µg/mL] | MBC (Proteus vulgaris [16]) [µg/mL] | MIC (Staphylococcus aureus [17]) [µg/mL] | MBC (Staphylococcus aureus [18]) [µg/mL] | MIC [19] [µg/mL] | MBC [20] [µg/mL] | also measured |
| --- | --- | --- | --- | --- | --- | --- | --- | --- | --- | --- | --- | --- | --- | --- | --- | --- | --- | --- | --- | --- | --- |
| CC1=CC(C)=C(C(=O)O)C2=N[N+]3(CCN(c4cc5c(cc4F)c(=O)c(C(=O)O)cn5C4CC4)CC3)CN12.[Cl-] | -0.3214 | 128 | 128 | 32 | 32 | 64 | 64 | > 512 | 8 | 8 | 8 | 8 | 128 | 128 | 2 | 2 | 128 | 128 | 4 | 8 | MIC (Streptococcus pneumoniae [21]): > 512 µg/mL; MIC (Serratia marcescens [22]): 64 µg/mL; MBC (Serratia marcescens [23]): 64 µg/mL; MIC (Escherichia coli [24]): 0.5 µg/mL; MBC (Escherichia coli [25]): 2 µg/mL; Activity (HEK293 [26]): Non-Toxic; Activity (HEK293 [27]): Non-Toxic |
| CCn1cc(C(=O)O)c(=O)c2cc(F)c(N3CCNC(C)C3)c(F)c21 (stereo not given) [LOMEFLOXACIN] | 0.0766 | 1 (≈ 2.85 µM) | 1 (≈ 2.85 µM) | 0.5 (≈ 1.42 µM) | 1 (≈ 2.85 µM) | 1 (≈ 2.85 µM) | 2 (≈ 5.69 µM) | 128 (≈ 364 µM) | 0.125 (≈ 0.356 µM) | 0.125 (≈ 0.356 µM) | 0.063 (≈ 0.179 µM) | 0.125 (≈ 0.356 µM) | 1 (≈ 2.85 µM) | 1 (≈ 2.85 µM) | 0.008 (≈ 0.0228 µM) | 0.008 (≈ 0.0228 µM) | 0.5 (≈ 1.42 µM) | 1 (≈ 2.85 µM) | 0.25 (≈ 0.712 µM) | 0.25 (≈ 0.712 µM) | MBC (Enterococcus hirae [28]): 128 µg/mL (≈ 364 µM); MIC (Streptococcus pneumoniae [21]): 16 µg/mL (≈ 45.5 µM); MBC (Streptococcus pneumoniae [29]): > 512 µg/mL; MIC (Serratia marcescens [22]): 0.5 µg/mL (≈ 1.42 µM); MBC (Serratia marcescens [23]): 0.5 µg/mL (≈ 1.42 µM); Activity (Pseudomonas aeruginosa [30]): 2%; Activity (Staphylococcus aureus [31]): 9%; Activity (Pseudomonas aeruginosa [32]): 6%; Activity (Staphylococcus aureus [33]): 63%; Activity (Pseudomonas aeruginosa [34]): 40%; Activity (Pseudomonas aeruginosa [35]): 36%; Activity (Pseudomonas aeruginosa [36]): 34%; Activity (Staphylococcus aureus [37]): 58%; Activity (Staphylococcus aureus [38]): 12%; Activity (Staphylococcus aureus [39]): 6% |
| CCn1cc(C(=O)O)c(=O)c2cc(F)c(N3CC[N+]4(CC3)CN3C(C)=CC(C)=C(C(=O)O)C3=N4)nc21.[Cl-] | -0.3984 | 128 | 128 | 128 | 128 | 128 | 128 | 16 | 16 | 16 | 8 | 16 | 512 | 512 | 1 | 2 | 128 | 128 | 64 | 128 | MBC (Enterococcus hirae [28]): 32 µg/mL; MIC (Streptococcus pneumoniae [21]): > 512 µg/mL; MIC (Serratia marcescens [22]): 64 µg/mL; MBC (Serratia marcescens [23]): 128 µg/mL; MIC (Escherichia coli [24]): 4 µg/mL; MBC (Escherichia coli [25]): 16 µg/mL; Activity (HEK293 [26]): Non-Toxic; Activity (HEK293 [27]): Non-Toxic |
